{
  "source": "patent US7846891B2",
  "about": "“Self-assembling peptides for regeneration and repair of neural tissue” (Massachusetts Institute of Technology, priority 2003, dated 2010)",
  "key": {"[1]": {"test_system": "optic tract within the superior colliculus (brain wound)", "experiment": "Optic tract transection (knife wound in superior colliculus) in P2 hamster pups; histology and CT-B axon tracing", "format": "in vivo, Syrian hamster", "procedure": "Animals and surgery. Syrian hamster pups at two days of age (P2) were anesthetized with whole-body cooling. […] At surgery, 10 animals were treated by injection into the brain wound of 10 microliters of 1% SAP RADA16-I (n-RADARADARADARADA-c; SEQ ID NO: 1) prepared by dissolving peptide in sterile water. The overlying scalp was then closed with tissue glue (cyanoacrylic). The pups were returned to the cage, placed under a heat lamp, and monitored until they recovered. After recovery the hamster pups were returned to their mother. Control animals with the same lesion included 3 with isotonic saline injection (10 microliters), and 27 earlier cases with knife cuts and no injection.\n(§1) Axon tracing method. Four days before the animals were sacrificed they were anesthetized with intraperitoneal injection of Valium (50 mg/kg) and Nembutal (10 mg/kg). […]. This was accomplished with the aid of glass micropipette (tip diameter ˜10 μm) attached to a General Valve Pico Spritzer as previously described. The subjects were then returned to their cages, under a heat lamp, and monitored until they recovered.\nHistology. The animals were sacrificed with an overdose of anesthesia 4 days after the intraocular injection of CT-B and were then perfused transcardially with PBS buffer (pH 7.4) followed by 2% paraformaldehyde in 0.1M phosphate buffer (pH 7.4). The brains and eyes were removed and postfixed at 4° C. until they sank. The tissue was cut on a cryostat in 30 micron coronal sections. These sections were mounted directly on gelatin-coated slides. The mounted sections were first air dried, then washed with PBS (pH 7.4) three times at 10 min intervals, and then preblocked in PBS (pH 7.4) containing 2% Triton X-100, 2% normal rabbit serum, and 2.5% bovine serum albumin for 30 min at room temperature. The slides were then incubated with goat anti-cholaragenoid (List Biological Lab, Inc.) (1:8000 dilution)+2% Triton X-100, 2% normal rabbit serum, and 2.5% bovine serum albumin for 48 hours at room temperature. Slides were then washed in PBS (pH 7.4) for three rounds of 10 min each. Sections were incubated with fluorescent donkey anti-IgG antibody Alexa-488 (secondary antibody from Molecular Probes, Inc.) (1:200 dilution) for 1 her 30 min at room temperature in a light protected chamber. Slides were then washed in PBS (pH 7.4) 4 to 5 times at 5 min intervals. The slides were then cover-slipped with Dabco. The slides were visualized through a fluorescent microscope and pictures were taken with a Kodak DCS 620 digital camera. […]"}, "[2]": {"test_system": "brachium of the superior colliculus (brain wound)", "experiment": "Visually elicited orienting (head turning) test after transection of the brachium of the superior colliculus in adult hamsters", "format": "in vivo, Syrian hamster", "conditions": "BSC transected at 2 months of age, 10 ul of 1% SAP at surgery, testing from day 44-46, listed as SAP", "procedure": "Thus functional recovery of severed axons can be assessed by evaluating visually elicited head turning at various times after infliction of a lesion that severs the brachium, such as those described in Example 1.\nTo determine the extent of return of vision the animals are tested for visually elicited orienting responses. The identity of the animal is unknown to the investigator during testing periods. Before behavioral testing, the animals are habituated to the testing environment. Videotaping of the response is accomplished by the use of an overhead Sony digital video (DV) recorder. Some of the trials are simultaneously taped from the side with another Sony DV recorder. Later the video is analyzed frame-by-frame on a 21-inch monitor. All of the cameras are time synchronized. The first type of analysis is to determine if the trial is valid or invalid. Once a trial is judged as valid it is analyzed frame by frame, which enables us to plot the position of the stimulus with respect to the initial head location. The angle of the head at the beginning of the turning movement is set to zero. […]\nThe y axis represents the number of times the animal turned toward the stimulus during testing, expressed as a percentage of the number of times the stimulus was presented on the side that had received the lesion and SAP treatment. […]"}, "[3]": {"test_system": "brachium of the superior colliculus (brain wound)", "experiment": "Histology and CT-B axon tracing after transection of the brachium of the superior colliculus in adult hamsters", "format": "in vivo, Syrian hamster", "conditions": "BSC transection; for axon growth through the lesion site (CT-B tracing) / tissue reconnection / repair at the lesion site (histology): 10 ul of 1% SAP, section 2 months after injection", "procedure": "as §1\nHistology. The animals were sacrificed with an overdose of anesthesia 4 days after the intraocular injection of CT-B and were then perfused transcardially with PBS buffer (pH 7.4) followed by 2% paraformaldehyde in 0.1M phosphate buffer (pH 7.4). The brains and eyes were removed and postfixed at 4° C. until they sank. The tissue was cut on a cryostat in 30 micron coronal sections. These sections were mounted directly on gelatin-coated slides. The mounted sections were first air dried, then washed with PBS (pH 7.4) three times at 10 min intervals, and then preblocked in PBS (pH 7.4) containing 2% Triton X-100, 2% normal rabbit serum, and 2.5% bovine serum albumin for 30 min at room temperature. The slides were then incubated with goat anti-cholaragenoid (List Biological Lab, Inc.) (1:8000 dilution)+2% Triton X-100, 2% normal rabbit serum, and 2.5% bovine serum albumin for 48 hours at room temperature. Slides were then washed in PBS (pH 7.4) for three rounds of 10 min each. Sections were incubated with fluorescent donkey anti-IgG antibody Alexa-488 (secondary antibody from Molecular Probes, Inc.) (1:200 dilution) for 1 her 30 min at room temperature in a light protected chamber. Slides were then washed in PBS (pH 7.4) 4 to 5 times at 5 min intervals. The slides were then cover-slipped with Dabco. The slides were visualized through a fluorescent microscope and pictures were taken with a Kodak DCS 620 digital camera.\nAt the time of surgery, animals were treated by injection of 10 ul of 1% SAP RAD16-I into the brain wound. Animals were allowed to recover from surgery and maintained under standard laboratory conditions.\n. Axon tracing and histology were performed as described above to allow visualization of the lesion site and assessment of axon regrowth. FIG. 10 is a parasagittal section of the dorsal midbrain of a hamster. Rostral is left and caudual is right. The section is from an 8 month old hamster and was taken 2 months following infliction of the lesion. The bright yellow in the middle of the picture that extends from the lower left to the upper right is in the middle of the lesion site. Retinal projections show as gray. Note the axons extending through the center of the cut. […] In addition, the tissue has reconnected at the lesion site in a similar manner to that observed in the younger animals."}, "[4]": {"experiment": "Self-assembly of SAP on addition to CSF in vitro", "format": "physicochemical", "conditions": "data not shown"}},
  "note": "Entries after “also recorded” stand apart in the source; their conditions may differ.",
  "data": [
    {"substance": "n-RADARADARADARADA-c [RADA16-I]", "values": [
      {"measurement": "axon regrowth across the lesion (cholera-toxin labeling)", "setting": "[1]; 1 month hamster, lesion at P2 injected with 10 microliters of 1% SAP", "value": "axons have extended from a location proximal to the lesion to a distal location"},
      {"measurement": "scar at lesion site (bright-field image)", "setting": "[1]; 2 months after lesion and injection of SAP", "value": "minimal nature of the scar"},
      {"measurement": "re-innervation of the caudal SC by the severed retinofugal axons", "setting": "[1]; lesion at P2, 10 ul of 1% SAP", "value": "partial re-innervation of the caudal SC"},
      {"measurement": "tissue reconnection across the lesion (histology)", "setting": "[1]; lesion at P2, 10 ul of 1% SAP injected into brain wound, survival 1, 3, 6, 30 or 60 days, vs saline and no-injection controls (χ^2=34.8, df (1), p<<0.001)", "value": "the tissue appears to have reconnected across the lesion at all survival times"},
      {"measurement": "behavioral recovery (response to visual stimulus)", "setting": "[2]", "value": "significant behavioral recovery; also recorded: return of functional vision in six animals"},
      {"measurement": "re-innervation of the SC by the severed retinofugal axons", "setting": "[3]; 10 ul of 1% SAP at surgery", "value": "partial re-innervation of the SC"},
      {"measurement": "axon growth through the lesion site (CT-B tracing)", "setting": "[3]; listed as RAD16-I", "value": "axons have extended their processes to the superior colliculus"},
      {"measurement": "tissue reconnection / repair at the lesion site (histology)", "setting": "[3]; listed as RAD16-I", "value": "All of the tissue has repaired itself"},
      {"measurement": "axon growth through the lesion site (CT-B tracing)", "setting": "[3]; listed as SAP", "value": "axons growing through the site where the cut transected the brachium of the superior colliculus"},
      {"measurement": "tissue reconnection / repair at the lesion site (histology)", "setting": "[3]; listed as SAP", "value": "neural tissue reconnected across the site of the lesion"},
      {"measurement": "self-assembly in CSF", "setting": "[4]", "value": "resulted in self-assembly to form a peptide scaffold"}
    ]}
  ]
}
